“Also recorded” adds a separate entry of the source.
Experiments:
primary human AML cells [1] = assay: Secondary screen: dose response, five serial dilutions (CD34/CD15 flow cytometry); type: cell-based; set-up: key to 2ndary screen criteria fulfilled: 0 = no; 1 = yes
Description: In the primary screen cells were plated in transparent 384-wellplates (Greiner, 781182) at a density of 5,000 cells in 50 μl final volume per well. Compounds were tested at 2 μM (commercial libraries) or 1 μg/ml (Medicinal Chemistry Facility, IRIC). […] For validation experiments AML cells were grown in 384-well plates with 3-8 replicates per condition.
Flow cytometry was performed on an LSR™ II cytometer equipped with an HTS-device (BD Bioscience, Primary and Secondary screens and in vitro validation experiments) or on a BD Canto™ II cytometer (BD Bioscience, Xenotransplantation and CellTrace Violet™ experiments). Cells were stained for 30 minutes at 4° C. protected from light if not otherwise indicated (CellTrace Violet™ staining). The following flow cytometry-antibodies were used: CD45 Pacific Blue (BioLegend 304029), CD33 PE (BD Bioscience 555450), CD34 APC (BD Bioscience 555824), CD3 FITC (BD Bioscience 555332), CD19 PE-Cy7 (BD Bioscience 557835), CD15 PE (BD Bioscience 555401), and anti-mouse CD45.1 APC-efluor 730 (eBioscience 47-0453-82). CD34 intensities in flow cytometry plots were set at high levels on day 0 to allow tracing of non-predictable decreases of intensities during 7 days in culture.

[2] = test system: AhR target genes CYP1A1, CYP1B1 and AHRR; assay: AhR target gene expression by q-RT-PCR in AML cells; type: cell-based, human
From the text: RNA was isolated from primary AML samples using Trizol® reagent according to the manufacturer's instructions (Invitrogen/Life Technologies) and reverse transcribed into cDNA using MMLV reverse transcriptase and random primers. 2× Fast Master Mix® containing primers described below and probes from the Universal Probe Library® (Roche Diagnostics) were used for q-RT-PCR reactions which were amplified in 2-3 technical replicates on an ABI 7900HT Fast Real-Time® PCR System (Applied Biosystems/Life Technologies). Analysis was done with SDS 2.2.2 software (Applied Biosystems/Life Technologies) using the comparative delta CT method with GAPDH as reference gene. The following primers and probes were used: GAPDH: 5′-[…]-3′ (forward, SEQ ID NO:7), 5′-[…]-3′ (reverse, SEQ ID NO:8), probe 60, CYP1A1: 5′-[…]-3′ (forward, SEQ ID NO:9), 5′-[…]-3′ (reverse, SEQ ID NO:10), probe 59, CYP1B1: 5′-[…]-3′ (forward, SEQ ID NO:11), 5′-[…]-3′ (reverse, SEQ ID NO:12), probe 20, AHRR: 5′-[…]-3′ (forward, SEQ ID NO:13), 5′-[…]-3′ (reverse, SEQ ID NO:14), probe 72, AHR: 5′-[…]-3′ (forward, SEQ ID NO:15), 5′-[…]-3′ (reverse, SEQ ID NO:16), probe 33.

[3] = test system: primary human AML specimens; assay: Validation: 7-day serum-free culture of diverse AML specimens (CD34+CD15− cells); type: cell-based; details: for preventing AML cell differentiation in vitro, compound alone: 17 AML specimens, UM729 1 μM
Description: The following flow cytometry-antibodies were used: […] Statistical analyses of all in vitro experiments were done using Graphpad Prism v 6.01. […] Normalized CD34^+CD15^- percentages (td7/t0) were analyzed by Wilcoxon matched pairs signed rank test. Bars and error bars represent means and standard deviations (SD), or standard errors of the mean (SEM), as specified. Extreme limiting dilution analysis software (Hu, […]: extreme limiting dilution analysis for comparing depleted and enriched populations in stem cell and other assays. Journal of immunological methods 347, 70-78 (2009); http://bioinf.wehi.edu.au/software/elda/) was used to estimate LSC frequencies with 95% confidence intervals. In cases where all mice were positive or negative, one-sided confidence intervals were calculated. Differences in LSC frequencies between culture conditions were analyzed by Chi-square test.

AML cells (04H112) = assay: Cell proliferation assay (CellTrace Violet); type: cell-based, human; details: 4-day culture; SR1 500 nM, UM729 1 μM
Description: CellTrace™ Violet (Invitrogen/Life Technologies C34557) was added at a final concentration of 3 μM to cell suspensions (10^7 cells/ml) containing SR1 (500 nM), UM729 (1 μM), both compounds, or vehicle DMSO (0.1%). CellTrace™ Violet labeled cells were stained with surface antibodies against human CD3, CD19, CD34, and CD33 on day 0, day 2, and day 4 prior to analysis on a BD Canto™ II flow cytometer. Data were analyzed using FlowJo™ version 7.6.5.

[4] = test system: leukemia stem cells (LSC) of primary human AML samples; assay: Xenotransplantation of 4-day cultured AML cells into NSG mice (engraftment, LSC frequency); type: in vivo
From the text: NOD.Cg-Prkdc^scid II2rg^tm1Wjl/SzJ (NSG) mice were purchased from Jackson Laboratory® (Bar Harbor, Me.) and bred in a pathogen-free animal facility. All AML samples were transplanted via the tail vein into 8-12 week old sublethally irradiated (250 cGy, ^137Cs-gamma source) NSG mice. […] On day 4, equivalents of the three highest to cell doses from each of the 3-4 flasks per condition were transplanted. The technician injecting fresh and cultured cells in NSG mice was not informed about the experimental conditions. […] On average 150,000 gated events were acquired. Mice were considered positive if human cells represented >1% of the bone marrow cell population. Mice were excluded only in case of obvious non-leukemia related death (e.g. first two weeks after irradiation). To discriminate between engraftment of leukemic and normal cells present in unsorted patient samples only recipients with proportions of CD45^+CD33^+ or CD45^+CD34^+ cells higher than proportions of CD19^+CD33^- or CD3^+ were considered to harbor cells of leukemic origin. Statistical analyses of all in vitro experiments were done using Graphpad Prism v 6.01. […] Normalized CD34^+CD15^- percentages (td7/t0) were analyzed by Wilcoxon matched pairs signed rank test. Bars and error bars represent means and standard deviations (SD), or standard errors of the mean (SEM), as specified. Extreme limiting dilution analysis software (Hu, […]: extreme limiting dilution analysis for comparing depleted and enriched populations in stem cell and other assays. Journal of immunological methods 347, 70-78 (2009); http://bioinf.wehi.edu.au/software/elda/) was used to estimate LSC frequencies with 95% confidence intervals. In cases where all mice were positive or negative, one-sided confidence intervals were calculated. Differences in LSC frequencies between culture conditions were analyzed by Chi-square test.

AML 05H163 cells = assay: 5-day culture of AML 05H163 with AhR suppressors plus UM729; type: cell-based, human; details: 05H163, 5 days
Description: AML cells were thawed in 37° C. water bath and 1:10 diluted in prewarmed Iscove's modified Dulbecco's medium (IMDM) containing 20% FBS and DNase 100 μg/ml. Cells were cultured in IMDM supplemented with 15% BIT (bovine serum albumin, insulin, transferrin, Stem Cell Technologies #09500), SCF 100 ng/ml (Shenandoah #100-04), FLT3L 50 ng/ml (Shenandoah #100-21), II-3 20 ng/ml (Shenandoah #100-80), G-CSF 20 ng/ml (Shenandoah #100-72), β-mercaptoethanol (10^−4M), gentamicin (50 μg/ml) and ciprofloxacin (10 μg/ml). […] When compounds were added to the culture medium, final DMSO concentrations were 0.1% in all in vitro experiments and 0.01% when cultured cells were transplanted into NSG-mice.
Flow cytometry was performed on an LSR™ II cytometer equipped with an HTS-device (BD Bioscience, Primary and Secondary screens and in vitro validation experiments) or on a BD Canto™ II cytometer (BD Bioscience, Xenotransplantation and CellTrace Violet™ experiments). Cells were stained for 30 minutes at 4° C. protected from light if not otherwise indicated (CellTrace Violet™ staining). The following flow cytometry-antibodies were used: CD45 Pacific Blue (BioLegend 304029), CD33 PE (BD Bioscience 555450), CD34 APC (BD Bioscience 555824), CD3 FITC (BD Bioscience 555332), CD19 PE-Cy7 (BD Bioscience 557835), CD15 PE (BD Bioscience 555401), and anti-mouse CD45.1 APC-efluor 730 (eBioscience 47-0453-82). […]

AML cells = assay: Morphology analysis (cytospins, Wright stain); type: cell-based, human; details: 4-day culture; SR1 500 nM, UM729 1 μM
Description: 2-4×10^5 fresh and cultured cells were centrifuged onto cytospin slides, stained with Wright stain solution for 10 minutes and washed with PBS and water prior to analysis. Pictures of cytospins were taken with a Canon® EOS 5D camera connected to a Zeiss® Axio Imager microscope (40× objective).

primary human AML cells [5] = assay: Primary screen: differentiation of primary human AML cells in vitro (CD34/CD15, HTS flow cytometry)
human AHR = target: T1, human AHR (Homo sapiens, UniProt P35869); details: Mezrich et al. 2012; cited from earlier work
T1 sequence (P35869 11-848): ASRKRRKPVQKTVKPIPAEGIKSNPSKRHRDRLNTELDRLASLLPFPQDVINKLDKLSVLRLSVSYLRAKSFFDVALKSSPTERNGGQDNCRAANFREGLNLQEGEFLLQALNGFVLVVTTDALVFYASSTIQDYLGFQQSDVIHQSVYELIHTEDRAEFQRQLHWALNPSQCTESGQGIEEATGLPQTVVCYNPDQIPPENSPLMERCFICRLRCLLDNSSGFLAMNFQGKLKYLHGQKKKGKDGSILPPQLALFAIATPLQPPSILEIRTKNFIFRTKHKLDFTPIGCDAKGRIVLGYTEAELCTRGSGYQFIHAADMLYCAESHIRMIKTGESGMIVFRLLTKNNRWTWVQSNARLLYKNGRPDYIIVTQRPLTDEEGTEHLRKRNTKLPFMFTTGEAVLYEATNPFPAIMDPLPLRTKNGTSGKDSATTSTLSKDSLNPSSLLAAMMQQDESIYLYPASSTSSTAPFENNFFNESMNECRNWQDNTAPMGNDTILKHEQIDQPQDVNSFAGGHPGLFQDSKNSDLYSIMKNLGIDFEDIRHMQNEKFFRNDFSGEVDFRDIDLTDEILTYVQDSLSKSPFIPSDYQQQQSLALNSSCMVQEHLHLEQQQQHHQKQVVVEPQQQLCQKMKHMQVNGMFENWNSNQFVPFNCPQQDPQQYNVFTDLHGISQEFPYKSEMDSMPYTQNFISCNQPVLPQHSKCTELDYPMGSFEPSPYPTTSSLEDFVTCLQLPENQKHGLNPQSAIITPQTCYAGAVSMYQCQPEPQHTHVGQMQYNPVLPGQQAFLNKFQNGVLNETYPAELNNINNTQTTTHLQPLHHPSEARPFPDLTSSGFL

[6] = at optimal concentration, compared to DMSO

## COC(=O)c1ccc2c(c1)[nH]c1ncnc(NCCCN3CCCCC3)c12 [UM0125729, methyl 4-((3-(piperidin-1-yl)propyl)amino)-9H-pyrimido[4,5-b]indole-7-carboxylate]
Primary human AML cells [1]; [6]
  % increase CD34+CD15− (%) 2ndary screen: 205.07%
  % increase CD34+CD15− (cell counts) 2ndary screen: 206.53%
Primary human AML cells [1]; ≧50% increase CD34+CD15− (%) and cell counts and ≧50% gated cells in at least one dose
  2ndary screen criteria fulfilled: 1
[2]; 24 h incubation, compared to DMSO, GAPDH control
  effect on AhR target genes (CYP1A1, CYP1B1, AHRR) expression: no effect
[3]; 7-day culture, CD34+CD15− percentage
  effect of adding UM729 to AhR suppressor-supplemented cultures: enhanced the effect of SR1 in all specimens
[3]; 7-day culture
  preventing AML cell differentiation in vitro, compound alone: most samples responded
[3]; 7 days in culture
  CD34+CD38− and CD34+CD38+ compartments, SR1 and UM729 compared to DMSO: benefitted
AML cells (04H112)
  distribution of cell generations / number of early cell divisions: did not affect
[4]; 4-day culture, NSG mice, most samples
  effect of adding UM729 to SR1- (or C05-) supplemented cultures on engraftment: increased engraftment levels, but not LSC frequency
AML 05H163 cells
  absolute numbers of CD34+CD15− cells, UM729 added compared to AhR suppressors alone: higher
AML cells
  typical morphologic signs of differentiation on cytospins: rarely seen
Primary human AML cells [5]; 2 μM (commercial libraries) or 1 μg/ml (IRIC)
  percent gated cells (viability): 78.40%
Primary human AML cells [5]; compared to DMSO
  % increase CD34+ (cell counts): 26.44%
  % increase CD34+CD15− (cell counts): 63.00%
Primary human AML cells [5]; compared to DMSO ((compound − DMSO)/DMSO*100)
  % increase CD34+CD15− (%): 47.24%

## Cc1cc(C)c(/C=C2\C(=O)Nc3ccccc32)[nH]1 [SU5416, 3-(3,5-dimethyl-1H-pyrrol-2-ylmethylene)-1,3-dihydro-indole-2-one]
Human AHR
  activation of the human AHR: potency approaching TCDD

## CC(C)n1cnc2c(NCCc3ccc(O)cc3)nc(-c3csc4ccccc34)nc21 [SR1, StemRegenin 1]
[2]; SR1 500 nM, TCDD 0.1, 1, 10 nM, n=13 samples
  upregulation of AhR target genes AHRR and CYP1A1 upon 24 h in vitro culture: effectively antagonized
[3]; 7-day culture, compared to input
  samples with net expansion of CD34+CD15− cells: 15/16
[3]; 7-day culture, maximum (AML 08H112)
  increase in CD34+CD15− cell numbers: up to 42 fold
[3]; 7-day culture, vs DMSO, P<0.0001 paired t-test
  impact on CD34+CD15− cell numbers: significant impact
[3]; 7-day culture, SR1 0.75-1 μM, C05 2 μM, DMSO 19% / 22%
  median CD34+CD15− percentage relative to uncultured cells: 72%
[3]; 7-day culture
  preventing AML cell differentiation in vitro, compound alone: superior to UM729
AML cells (04H112)
  distribution of cell generations / number of early cell divisions: no difference
[4]; cultures before transplantation, DMSO 6.2±3×10^6
  total viable cells per flask (median±SD) following 4-day culture: 4.8±2×10^6
[4]; sample 05H163, progeny of 2×10^6 input cells, SR1-supplemented culture
  engraftment (average): 50%
[4]; six samples, engraftment in NSG mice
  supporting LSC functional activity, SR1 alone versus UM729 alone: superior to UM729 in supporting LSC functional activity in four of six samples; also recorded: equally efficacious in two samples
[4]; six samples, 4-day culture with SR1 0.5-1 μM, NSG mice
  engraftment levels compared to control DMSO: higher engraftment levels

Source: patent publication US9757378B2, “Methods to modulate acute myeloid leukemia stem/progenitor cell expansion and/or differentiation” (UNIVERSITE DE MONTREAL, priority 2013, dated 2017)
